Experimental data from ChEMBL document CHEMBL1152576, “E-Combretastatin and E-resveratrol structural modifications: antimicrobial and cancer cell growth inhibitory beta-E-nitrostyrenes” (Bioorg Med Chem, 2009).
In brackets after ≈: the same amount, converted by molar mass. Activity calls are given as the source filed them. No cut-off for these calls is given here.

How the values were obtained:
Enterococcus faecalis [1] = assay: Antimicrobial activity against Enterococcus faecalis ATCC 29212 by broth microdilution susceptibility assay; assay type: functional
A498 = assay: Cytotoxicity against human A498 cells after 48 hrs by sulforhodamine B assay; assay type: functional
Streptococcus pneumoniae [2] = assay: Antimicrobial activity against Streptococcus pneumoniae ATCC 6303 assessed clear zone in inhibition per disk by CLSI disk diffusion susceptibility assay; assay type: functional
BXPC-3 = assay: Cytotoxicity against human BxPC3 cells after 48 hrs by sulforhodamine B assay; assay type: functional
Candida albicans [3] = assay: Antifungal activity against Candida albicans ATCC 90028 after 48 hrs by broth microdilution susceptibility assay; assay type: functional; conditions: ATCC 90028, 48 h
Candida albicans [4] = assay: Antimicrobial activity against Candida albicans ATCC 90028 assessed clear zone in inhibition per disk by CLSI disk diffusion susceptibility assay; assay type: functional
Streptococcus pneumoniae [5] = assay: Antimicrobial activity against Streptococcus pneumoniae ATCC 6303 by broth microdilution susceptibility assay; assay type: functional
KM-20L2 = assay: Cytotoxicity against human KM20L2 cells after 48 hrs by sulforhodamine B assay; assay type: functional
P388 = assay: Cytotoxicity against mouse P388 cells after 48 hrs by sulforhodamine B assay; assay type: functional; conditions: for EC50: P388, 48 h, read-out: ED50 (the source's name)
Cryptococcus neoformans [6] = assay: Antimicrobial activity against Cryptococcus neoformans ATCC 90112 assessed clear zone in inhibition per disk by CLSI disk diffusion susceptibility assay; assay type: functional
MCF7 = assay: Cytotoxicity against human MCF7 cells after 48 hrs by sulforhodamine B assay; assay type: functional
[7] = test system: Stenotrophomonas maltophilia; assay: Antimicrobial activity against Stenotrophomonas maltophilia ATCC 13637 by broth microdilution susceptibility assay; assay type: functional
Enterobacter cloacae [8] = assay: Antimicrobial activity against Enterobacter cloacae ATCC 13047 assessed clear zone in inhibition per disk by CLSI disk diffusion susceptibility assay; assay type: functional
DU-145 = assay: Cytotoxicity against human DU145 cells after 48 hrs by sulforhodamine B assay; assay type: functional
Escherichia coli [9] = assay: Antimicrobial activity against Escherichia coli ATCC 25922 by broth microdilution susceptibility assay; assay type: functional
Neisseria gonorrhoeae [10] = assay: Antimicrobial activity against Neisseria gonorrhoeae ATCC 49226 by broth microdilution susceptibility assay; assay type: functional
[11] = test system: Stenotrophomonas maltophilia; assay: Antimicrobial activity against Stenotrophomonas maltophilia ATCC 13637 assessed clear zone in inhibition per disk by CLSI disk diffusion susceptibility assay; assay type: functional
Micrococcus luteus [12] = assay: Antimicrobial activity against Micrococcus luteus Presque Isle 456 assessed clear zone in inhibition per disk by CLSI disk diffusion susceptibility assay; assay type: functional
Cryptococcus neoformans [13] = assay: Antifungal activity against Cryptococcus neoformans ATCC 90112 after 72 hrs by broth microdilution susceptibility assay; assay type: functional; conditions: ATCC 90112, 72 h
SF-295 = assay: Cytotoxicity against human SF295 cells after 48 hrs by sulforhodamine B assay; assay type: functional
Cryptococcus neoformans [14] = assay: Antifungal activity against Cryptococcus neoformans ATCC 90112 after 48 hrs by broth microdilution susceptibility assay; assay type: functional; conditions: ATCC 90112, 48 h
[15] = Inhibition of tubulin polymerization
Staphylococcus aureus [16] = assay: Antimicrobial activity against Staphylococcus aureus ATCC 29213 assessed clear zone in inhibition per disk by CLSI disk diffusion susceptibility assay; assay type: functional
SK-MEL-5 = assay: Cytotoxicity against human SK-MEL-5 cells after 48 hrs by sulforhodamine B assay; assay type: functional
Escherichia coli [17] = assay: Antimicrobial activity against Escherichia coli ATCC 25922 assessed clear zone in inhibition per disk by CLSI disk diffusion susceptibility assay; assay type: functional
OVCAR-3 = assay: Cytotoxicity against human OVCAR-3 cells after 48 hrs by sulforhodamine B assay; assay type: functional
Neisseria gonorrhoeae [18] = assay: Antimicrobial activity against Neisseria gonorrhoeae ATCC 49226 assessed clear zone of inhibition measured per disk by CLSI disk diffusion susceptibility assay; assay type: functional
Micrococcus luteus [19] = assay: Antimicrobial activity against Micrococcus luteus Presque Isle 456 by broth microdilution susceptibility assay; assay type: functional
NCI-H460 = assay: Cytotoxicity against human NCI-H460 cells after 48 hrs by sulforhodamine B assay; assay type: functional
Staphylococcus aureus [20] = assay: Antimicrobial activity against Staphylococcus aureus ATCC 29213 by broth microdilution susceptibility assay; assay type: functional
Enterobacter cloacae [21] = assay: Antimicrobial activity against Enterobacter cloacae ATCC 13047 by broth microdilution susceptibility assay; assay type: functional
SF-268 = assay: Cytotoxicity against human SF268 cells after 48 hrs by sulforhodamine B assay; assay type: functional
Enterococcus faecalis [22] = assay: Antimicrobial activity against Enterococcus faecalis ATCC 29212 assessed clear zone in inhibition per disk by CLSI disk diffusion susceptibility assay; assay type: functional
Candida albicans [23] = assay: Antifungal activity against Candida albicans ATCC 90028 after 24 hrs by broth microdilution susceptibility assay; assay type: functional; conditions: ATCC 90028, 24 h
Neisseria gonorrhoeae [24] = assay: Antimicrobial activity against Neisseria gonorrhoeae ATCC 49226 after 24 hrs by broth microdilution susceptibility assay; assay type: functional; conditions: ATCC 49226, 24 h
Streptococcus pneumoniae [25] = assay: Antimicrobial activity against Streptococcus pneumoniae ATCC 6303 after 24 hrs by broth microdilution susceptibility assay; assay type: functional; conditions: ATCC 6303, 24 h

## COc1cc(/C=C/[N+](=O)[O-])cc2c1OCO2
Enterococcus faecalis [1]
  MIC: > 64 µg/mL
A498
  GI50: inactive
Streptococcus pneumoniae [2]
  MIC: >100 µg
BXPC-3
  GI50: inactive
Candida albicans [3]
  MIC: > 64 µg/mL
Candida albicans [4]
  MIC: 1.56 µg
Streptococcus pneumoniae [5]
  MIC: > 64 µg/mL
KM-20L2
  GI50: inactive
P388
  ED50: inactive
Cryptococcus neoformans [6]
  MIC: 3.12 µg
MCF7
  GI50: inactive
[7]
  MIC: > 64 µg/mL
Enterobacter cloacae [8]
  MIC: >100 µg
DU-145
  GI50: inactive
Escherichia coli [9]
  MIC: > 64 µg/mL
Neisseria gonorrhoeae [10]
  MIC: > 64 µg/mL
[11]
  MIC: >100 µg
Micrococcus luteus [12]
  MIC: >100 µg
Cryptococcus neoformans [13]
  MIC: 64 µg/mL (≈ 287 µM)
SF-295
  GI50: inactive
Cryptococcus neoformans [14]
  MFC: > 64 µg/mL
[15]
  IC50: 5.6 µM
Staphylococcus aureus [16]
  MIC: >100 µg
SK-MEL-5
  GI50: inactive
Escherichia coli [17]
  MIC: >100 µg
OVCAR-3
  GI50: inactive
Neisseria gonorrhoeae [18]
  MIC: 1.56 µg
Micrococcus luteus [19]
  MIC: > 64 µg/mL
NCI-H460
  GI50: inactive
Staphylococcus aureus [20]
  MIC: > 64 µg/mL
Enterobacter cloacae [21]
  MIC: > 64 µg/mL
SF-268
  GI50: inactive
Enterococcus faecalis [22]
  MIC: >100 µg

## COc1cc(/C=C/[N+](=O)[O-])ccc1O
Enterococcus faecalis [1]
  MIC: > 64 µg/mL
A498
  GI50: inactive
Streptococcus pneumoniae [2]
  MIC: 3.12 µg
BXPC-3; BXPC-3, 48 h
  GI50: 1.2 µg/mL (≈ 6.15 µM)
Candida albicans [3]
  MIC: 16 µg/mL (≈ 82 µM)
Candida albicans [4]
  MIC: 6.25 µg
Streptococcus pneumoniae [5]
  MIC: > 64 µg/mL
KM-20L2; KM-20L2, 48 h
  GI50: 1.1 µg/mL (≈ 5.64 µM)
P388
  EC50: 0.18 µg/mL (≈ 0.922 µM)
Cryptococcus neoformans [6]
  MIC: 3.12 µg
MCF7
  GI50: inactive
[7]
  MIC: > 64 µg/mL
Enterobacter cloacae [8]
  MIC: >100 µg
DU-145; DU-145, 48 h
  GI50: 0.38 µg/mL (≈ 1.95 µM)
Escherichia coli [9]
  MIC: > 64 µg/mL
Neisseria gonorrhoeae [10]
  MIC: 4 µg/mL (≈ 20.5 µM)
[11]
  MIC: 50 µg
Candida albicans [23]
  MFC: 16 µg/mL (≈ 82 µM)
Micrococcus luteus [12]
  MIC: 50 µg
Cryptococcus neoformans [13]
  MIC: 16 µg/mL (≈ 82 µM)
SF-295; SF-295, 48 h
  GI50: 0.37 µg/mL (≈ 1.9 µM)
Cryptococcus neoformans [14]
  MFC: 16 µg/mL (≈ 82 µM)
[15]
  IC50: 9.3 µM
Staphylococcus aureus [16]
  MIC: 12.5 µg
SK-MEL-5
  GI50: inactive
Escherichia coli [17]
  MIC: 6.25 µg
OVCAR-3; OVCAR-3, 48 h
  GI50: 0.48 µg/mL (≈ 2.46 µM)
Neisseria gonorrhoeae [18]
  MIC: 0.78 µg
Micrococcus luteus [19]
  MIC: > 64 µg/mL
Neisseria gonorrhoeae [24]
  MBC: 4 µg/mL (≈ 20.5 µM)
NCI-H460; NCI-H460, 48 h
  GI50: 0.34 µg/mL (≈ 1.74 µM)
Staphylococcus aureus [20]
  MIC: > 64 µg/mL
Enterobacter cloacae [21]
  MIC: > 64 µg/mL
SF-268
  GI50: inactive
Enterococcus faecalis [22]
  MIC: 25 µg

## COc1cc(/C=C/[N+](=O)[O-])cc(OC)c1O
Enterococcus faecalis [1]
  MIC: > 64 µg/mL
Streptococcus pneumoniae [25]
  MBC: > 64 µg/mL
A498
  GI50: inactive
Streptococcus pneumoniae [2]
  MIC: 6.25 µg
BXPC-3; BXPC-3, 48 h
  GI50: 1.5 µg/mL (≈ 6.66 µM)
Candida albicans [3]
  MIC: > 64 µg/mL
Candida albicans [4]
  MIC: 50 µg
Streptococcus pneumoniae [5]
  MIC: 64 µg/mL (≈ 284 µM)
KM-20L2; KM-20L2, 48 h
  GI50: 1.1 µg/mL (≈ 4.88 µM)
P388
  EC50: 2.2 µg/mL (≈ 9.77 µM)
Cryptococcus neoformans [6]
  MIC: 25 µg
MCF7; MCF7, 48 h
  GI50: 0.44 µg/mL (≈ 1.95 µM)
[7]
  MIC: > 64 µg/mL
Enterobacter cloacae [8]
  MIC: >100 µg
DU-145; DU-145, 48 h
  GI50: 0.36 µg/mL (≈ 1.6 µM)
Escherichia coli [9]
  MIC: > 64 µg/mL
Neisseria gonorrhoeae [10]
  MIC: 4 µg/mL (≈ 17.8 µM)
[11]
  MIC: 50 µg
Micrococcus luteus [12]
  MIC: >100 µg
Cryptococcus neoformans [13]
  MIC: 64 µg/mL (≈ 284 µM)
SF-295
  GI50: inactive
Cryptococcus neoformans [14]
  MFC: 64 µg/mL (≈ 284 µM)
[15]
  IC50: 8.5 µM
Staphylococcus aureus [16]
  MIC: >100 µg
SK-MEL-5
  GI50: inactive
Escherichia coli [17]
  MIC: >100 µg
OVCAR-3
  GI50: inactive
Neisseria gonorrhoeae [18]
  MIC: 1.56 µg
Micrococcus luteus [19]
  MIC: > 64 µg/mL
Neisseria gonorrhoeae [24]
  MBC: 4 µg/mL (≈ 17.8 µM)
NCI-H460; NCI-H460, 48 h
  GI50: 0.38 µg/mL (≈ 1.69 µM)
Staphylococcus aureus [20]
  MIC: > 64 µg/mL
Enterobacter cloacae [21]
  MIC: > 64 µg/mL
SF-268; SF-268, 48 h
  GI50: 0.54 µg/mL (≈ 2.4 µM)
Enterococcus faecalis [22]
  MIC: 50 µg

## COc1cc(/C=C/[N+](=O)[O-])cc(OC)c1OC
Enterococcus faecalis [1]
  MIC: > 64 µg/mL
A498
  GI50: inactive
Streptococcus pneumoniae [2]
  MIC: 3.12 µg
BXPC-3; BXPC-3, 48 h
  GI50: 1.4 µg/mL (≈ 5.85 µM)
Candida albicans [3]
  MIC: 32 µg/mL (≈ 134 µM)
Candida albicans [4]
  MIC: 3.12 µg
Streptococcus pneumoniae [5]
  MIC: > 64 µg/mL
KM-20L2; KM-20L2, 48 h
  GI50: 1.3 µg/mL (≈ 5.43 µM)
P388
  EC50: 1.1 µg/mL (≈ 4.6 µM)
Cryptococcus neoformans [6]
  MIC: 3.12 µg
MCF7
  GI50: inactive
[7]
  MIC: > 64 µg/mL
Enterobacter cloacae [8]
  MIC: >100 µg
DU-145; DU-145, 48 h
  GI50: 1 µg/mL (≈ 4.18 µM)
Escherichia coli [9]
  MIC: > 64 µg/mL
Neisseria gonorrhoeae [10]
  MIC: 4 µg/mL (≈ 16.7 µM)
[11]
  MIC: >100 µg
Candida albicans [23]
  MFC: 32 µg/mL (≈ 134 µM)
Micrococcus luteus [12]
  MIC: 25 µg
Cryptococcus neoformans [13]
  MIC: 16 µg/mL (≈ 66.9 µM)
SF-295; SF-295, 48 h
  GI50: 1.3 µg/mL (≈ 5.43 µM)
Cryptococcus neoformans [14]
  MFC: 16 µg/mL (≈ 66.9 µM)
[15]
  IC50: 4.5 µM
Staphylococcus aureus [16]
  MIC: 12.5 µg
SK-MEL-5
  GI50: inactive
Escherichia coli [17]
  MIC: >100 µg
OVCAR-3; OVCAR-3, 48 h
  GI50: 0.42 µg/mL (≈ 1.76 µM)
Neisseria gonorrhoeae [18]
  MIC: 0.78 µg
Micrococcus luteus [19]
  MIC: > 64 µg/mL
Neisseria gonorrhoeae [24]
  MBC: 8 µg/mL (≈ 33.4 µM)
NCI-H460; NCI-H460, 48 h
  GI50: 1.1 µg/mL (≈ 4.6 µM)
Staphylococcus aureus [20]
  MIC: > 64 µg/mL
Enterobacter cloacae [21]
  MIC: > 64 µg/mL
SF-268
  GI50: inactive
Enterococcus faecalis [22]
  MIC: 50 µg
